Measured values: the supplement of paper PMC10307832

Assays:
Test in all cases: relative viability (nuclei count vs DMSO), 5 days (fraction); higher = more cells survive
Vandetanib + Dasatinib = compound: COc1cc2/c(=N/c3ccc(Br)cc3F)nc[nH]c2cc1OCC1CCN(C)CC1 [Vandetanib] + Cc1nc(Nc2ncc(C(=O)Nc3c(C)cccc3Cl)s2)cc(N2CCN(CCO)CC2)n1 [Dasatinib] (partner 0.075 µM)
Method in brief: (§1)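 Five library-drug doses in √10 steps were combined with a fixed anchor-drug dose, or a single drug was given alone, by pin tool to lung cancer cell lines in 1536-well plates the day after seeding. Nuclei were stained and counted after 5 days. Relative viability is the nuclei count in treated wells over that in vehicle wells, taken as the median of duplicate plates.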

CUDC-101 + Trametinib = compound: C#Cc1cccc(Nc2ncnc3cc(OC)c(OCCCCCCC(=O)NO)cc23)c1 [CUDC-101] + CC(=O)Nc1cccc(-n2c(=O)n(C3CC3)c(=O)c3c(Nc4ccc(I)cc4F)n(C)c(=O)c(C)c32)c1 [Trametinib] (partner 0.02 µM)
Method in brief: as §1

CUDC-101 + Navitoclax = compound: C#Cc1cccc(Nc2ncnc3cc(OC)c(OCCCCCCC(=O)NO)cc23)c1 [CUDC-101] + CC1(C)CCC(c2ccc(Cl)cc2)=C(CN2CCN(c3ccc(C(=O)NS(=O)(=O)c4ccc(N[C@H](CCN5CCOCC5)CSc5ccccc5)c(S(=O)(=O)C(F)(F)F)c4)cc3)CC2)C1 [Navitoclax] (partner 0.5 µM)
Method in brief: as §1

Vandetanib + Olaparib = compound: COc1cc2/c(=N/c3ccc(Br)cc3F)nc[nH]c2cc1OCC1CCN(C)CC1 [Vandetanib] + O=C(c1cc(Cc2n[nH]c(=O)c3ccccc23)ccc1F)N1CCN(C(=O)C2CC2)CC1 [Olaparib] (partner 8 µM)
Method in brief: as §1

Cell Line | relative viability (Vandetanib + Dasatinib; first compound 0.02 µM) | relative viability (Vandetanib + Dasatinib; first compound 0.06325 µM) | relative viability (Vandetanib + Dasatinib; first compound 0.2 µM) | relative viability (Vandetanib + Dasatinib; first compound 0.6325 µM) | relative viability (Vandetanib + Dasatinib; first compound 2 µM) | relative viability (CUDC-101 + Trametinib; first compound 0.01 µM) | relative viability (CUDC-101 + Trametinib; first compound 0.03162 µM) | relative viability (CUDC-101 + Trametinib; first compound 0.1 µM) | relative viability (CUDC-101 + Trametinib; first compound 0.3162 µM) | relative viability (CUDC-101 + Trametinib; first compound 1 µM) | relative viability (CUDC-101 + Navitoclax; first compound 0.01 µM) | relative viability (CUDC-101 + Navitoclax; first compound 0.03162 µM) | relative viability (CUDC-101 + Navitoclax; first compound 0.1 µM) | relative viability (CUDC-101 + Navitoclax; first compound 0.3162 µM) | relative viability (CUDC-101 + Navitoclax; first compound 1 µM) | relative viability (Vandetanib + Olaparib; first compound 0.02 µM) | relative viability (Vandetanib + Olaparib; first compound 0.06325 µM) | relative viability (Vandetanib + Olaparib; first compound 0.2 µM) | relative viability (Vandetanib + Olaparib; first compound 0.6325 µM) | relative viability (Vandetanib + Olaparib; first compound 2 µM)
NCI-H1975 | 0.349 | 0.361 | 0.341 | 0.423 | 0.373 | 0.38 | 0.322 | 0.347 | 0.692 | 0.319 | 1.32 | 1.09 | 1.19 | 1.27 | 1.13 | 0.807 | 0.733 | 0.795 | 0.684 | 0.716
NCI-H1993 | 0.796 | 0.577 | 0.514 | 0.623 | 0.578 | 0.474 | 0.682 | 0.546 | 0.527 | 0.553 | 0.827 | 0.884 | 0.743 | 0.771 | 0.558 | 1.06 | 0.977 | 1.16 | 0.911 | 0.893
NCI-H2009 | 0.326 | 0.241 | 0.329 | 0.309 | 0.349 | 0.307 | 0.245 | 0.274 | 0.34 | 0.292 | 1.23 | 1.05 | 1.18 | 1.16 | 1.1 | 0.649 | 0.668 | 0.658 | 0.688 | 0.716
NCI-H2023 | 0.584 | 0.563 | 0.514 | 0.542 | 0.59 | 0.615 | 0.542 | 0.578 | 0.551 | 0.428 | 1.02 | 0.983 | 0.993 | 1 | 0.964 | 0.464 | 0.473 | 0.484 | 0.466 | 0.479
NCI-H2085 | 0.226 | 0.236 | 0.2 | 0.279 | 0.244 | 0.607 | 0.496 | 0.706 | 0.604 | 0.505 | 1.11 | 1.26 | 1.18 | 1.16 | 1.02 | 0.77 | 0.72 | 0.808 | 0.769 | 0.712
NCI-H2087 | 0.809 | 0.661 | 0.684 | 0.835 | 0.984 | 0.224 | 0.225 | 0.204 | 0.195 | 0.185 | 0.945 | 1.07 | 1.04 | 0.98 | 0.727 | 0.497 | 0.567 | 0.644 | 0.613 | 0.639
NCI-H2126 | 0.564 | 0.564 | 0.626 | 0.559 | 0.467 | 0.552 | 0.545 | 0.56 | 0.522 | 0.415 | 0.889 | 0.86 | 0.852 | 0.815 | 0.649 | 0.883 | 0.888 | 0.818 | 0.923 | 0.88
NCI-H2170 | 0.55 | 0.555 | 0.487 | 0.462 | 0.609 | 0.951 | 0.967 | 0.883 | 0.939 | 0.843 | 0.628 | 0.636 | 0.648 | 0.599 | 0.313 | 0.639 | 0.615 | 0.546 | 0.609 | 0.663
